In assay [1] the target is T1, human full length PIK3KA H1047R mutant (p110α/p85α complex) (Homo sapiens, UniProt P42336, H1047R).
T1 construct: Recombinant, catalytically active human full length PIK3KA Wild-type and H1047R mutant were purchased as 1:1 complex; 6xHis (N); purchased EMD Millipore Sigma 14-792M
Briefly: PI3K-alpha kinase (PIK3CA) biochemical activity, H1047R mutant, ADP-Glo. The following applies: PI3K-α (PIK3CA) biochemical, H1047R mutant. The source says:
(§1) PI3K-Alpha Kinase (PIK3CA) Activity, Wild-Type and H1047R Mutant and Determining IC50 Values for Inhibitors
(§2) Recombinant, catalytically active human full length PIK3KA Wild-type and H1047R mutant were purchased as 1:1 complex of N-terminal 6× his tagged p110α (catalytic) and untagged p85α (regulatory subunit) from EMD Millipore Sigma (cat. no. 14-602M and 14-792M, respectively). PIP2diC8 (Avanti Polar Lipids Inc., cat. no. 850185) or Soy PI (Avanti Polar Lipids Inc., cat. No. 840044P) was used as lipid substrate. PIP2diC8 or PI lyophilized powder was dissolved in milliQ water to a concentration of 1 mM just before use. 10 mM stock compounds in DMSO were serially diluted 1:3 to generate a 10-point curve and plated using an acoustic liquid handler system (Echo 550 series instrument, Labcyte). A 10× intermediate compound plate (200 uM starting compound concentration and 10% DMSO) was prepared before starting the reaction. A typical reaction mixture (50 uL) comprised 40 mM HEPES buffer, pH 7.4, 25 mM MgCl2, 0.01% v/v triton-X-100, 1% v/v DMSO, 20 mM NaCl, 1-5 nM WT or H1047R PI3K protein, 20 uM ATP, and 50 uM PIP2diC8 or Soy PI. 1% DMSO buffer alone without test compound was employed as MAX control (full activity in the absence of any inhibitor), and no enzyme control was used to determine the level of background Adenosine 5′-diphosphate (ADP) (MIN control). First, Wild-type (WT) and H1047R mutant protein in kinase buffer with all components except ATP were incubated with or without compound at 27° C. for 1 h. After the pre-incubation, the reaction was initiated by the addition of 20 uL of 50 uM ATP (20 uM final concentration). The reaction was allowed to proceed until about 10% conversion of ATP (2 uM ADP) at 27° C. After that time, 5 uL of reaction was mixed with 5 uL of ADP-Kinase Glo Reagent (ADP-Glo Kinase assay kit, Promega cat. no. V9102) supplemented with MgCl2 10 mM to stop the reaction and deplete the remaining ATP for 40 min at room temperature. Then, 10 uL of Kinase Detection Reagent (ADP-Glo Kinase assay kit, Promega cat. no. V9102) was added to simultaneously convert ADP to ATP and allow the newly synthesized ATP to be measured using a luciferase/luciferin reaction. After 30 min at room temperature the light generated was measured using a luminometer (EnVision plate reader, Perkin Elmer). Process data through Genedata-Screener tool. Relative IC50 values are determined using luminescence units by calculating percent inhibition with respect to on-plate “MIN” and “MAX” controls. Data was analyzed using a 4-parameter nonlinear logistic equation (four-parameter logistic concentration-response curve): Y=bot+[(top−bot)/1+(x/IC50)slope] where Y=% inhibition, X=concentration yielding y % inhibition, Bottom=minimum value of y attained by curve, Top=maximum value of y attained by curve and Slope=steepness of curve at IC50. % Inh=[(median Max−x/median Max−median Min)]·100 IC50: concentration of compound that reduces a given response (ligand binding, enzyme response) by 50%. IC50 relative: concentration giving half the compound's maximum response.
(§3) For IC50 values shown in Table A, “A” means IC50<0.5 μM; “B” means IC50 ranging between 0.5 μM and 1.0 μM; “C” means IC50 ranging between 1 μM and 5 μM; “D” means IC50 ranging between 5 μM and 10 μM; “E” means IC50>10 μM.

Assay [2] addresses T2, human full length PIK3KA Wild-type (p110α/p85α complex) (Homo sapiens, UniProt P42336).
T2 construct: Recombinant, catalytically active human full length PIK3KA Wild-type and H1047R mutant were purchased as 1:1 complex; 6xHis (N); purchased EMD Millipore Sigma 14-602M
The assay can be described thus: PI3K-alpha kinase (PIK3CA) biochemical activity, wild-type, ADP-Glo. As to conditions: PI3K-α (PIK3CA) biochemical.
From the text: as §1, §2, §3

Where [3] appears, read: PIP2diC8 lipid substrate (footnote 1).

T1 sequence (P42336 whole entry H1047R): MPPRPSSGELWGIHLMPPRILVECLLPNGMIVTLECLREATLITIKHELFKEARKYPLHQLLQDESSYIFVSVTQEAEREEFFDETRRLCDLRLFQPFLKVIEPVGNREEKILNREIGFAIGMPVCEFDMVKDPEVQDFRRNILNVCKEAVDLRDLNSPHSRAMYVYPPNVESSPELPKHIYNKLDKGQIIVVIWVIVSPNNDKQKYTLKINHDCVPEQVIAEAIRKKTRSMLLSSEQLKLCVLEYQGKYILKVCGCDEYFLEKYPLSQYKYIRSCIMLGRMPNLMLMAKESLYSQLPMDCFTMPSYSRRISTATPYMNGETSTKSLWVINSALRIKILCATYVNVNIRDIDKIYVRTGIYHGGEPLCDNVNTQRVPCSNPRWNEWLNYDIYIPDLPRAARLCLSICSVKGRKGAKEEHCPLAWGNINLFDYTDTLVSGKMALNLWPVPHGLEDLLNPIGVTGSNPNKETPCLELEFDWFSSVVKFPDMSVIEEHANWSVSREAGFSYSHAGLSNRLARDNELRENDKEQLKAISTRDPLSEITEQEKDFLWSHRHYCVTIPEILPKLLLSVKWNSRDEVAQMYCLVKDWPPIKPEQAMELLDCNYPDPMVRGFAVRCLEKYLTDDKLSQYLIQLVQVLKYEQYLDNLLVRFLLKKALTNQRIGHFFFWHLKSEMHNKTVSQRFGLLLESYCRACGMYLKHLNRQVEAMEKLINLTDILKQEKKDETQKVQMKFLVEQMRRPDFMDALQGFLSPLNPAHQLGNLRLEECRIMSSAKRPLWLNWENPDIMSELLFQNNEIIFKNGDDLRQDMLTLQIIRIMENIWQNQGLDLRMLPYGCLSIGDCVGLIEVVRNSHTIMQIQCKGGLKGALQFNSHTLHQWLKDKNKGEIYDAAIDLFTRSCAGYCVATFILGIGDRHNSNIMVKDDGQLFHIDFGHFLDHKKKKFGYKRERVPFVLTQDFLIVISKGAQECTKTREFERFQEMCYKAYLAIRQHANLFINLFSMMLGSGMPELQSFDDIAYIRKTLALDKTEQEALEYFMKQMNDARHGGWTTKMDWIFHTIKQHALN
T1 sequence (P27986 whole entry partner): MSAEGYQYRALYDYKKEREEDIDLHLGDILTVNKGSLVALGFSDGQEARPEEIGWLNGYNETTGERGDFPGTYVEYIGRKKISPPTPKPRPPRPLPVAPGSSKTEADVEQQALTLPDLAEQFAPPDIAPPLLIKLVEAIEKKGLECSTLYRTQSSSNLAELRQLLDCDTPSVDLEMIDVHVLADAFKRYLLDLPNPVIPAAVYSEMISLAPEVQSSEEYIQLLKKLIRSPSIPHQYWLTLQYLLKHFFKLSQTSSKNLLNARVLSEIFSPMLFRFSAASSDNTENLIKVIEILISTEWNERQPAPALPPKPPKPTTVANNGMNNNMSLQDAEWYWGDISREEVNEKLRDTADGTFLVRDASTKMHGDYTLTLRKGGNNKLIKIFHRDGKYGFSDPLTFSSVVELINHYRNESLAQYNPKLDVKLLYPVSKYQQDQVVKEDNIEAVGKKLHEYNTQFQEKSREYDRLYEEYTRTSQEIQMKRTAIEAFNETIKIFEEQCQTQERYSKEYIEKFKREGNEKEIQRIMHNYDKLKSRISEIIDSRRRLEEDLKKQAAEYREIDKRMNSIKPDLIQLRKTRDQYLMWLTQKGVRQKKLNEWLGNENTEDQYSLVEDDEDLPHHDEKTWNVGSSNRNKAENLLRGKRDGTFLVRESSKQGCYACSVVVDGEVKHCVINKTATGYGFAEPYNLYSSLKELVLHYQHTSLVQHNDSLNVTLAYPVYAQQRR

On to `Cc1cc(C(C)Nc2ccccc2C(=O)O)c2oc(-c3ccc(S(C)(=O)=O)cc3)cc(=O)c2c1` (single isomer, unassigned; isomer 1) [Example 47, 2-[1-[6-Methyl-2-(4-methylsulfonylphenyl)-4-oxo-chromen-8-yl]ethylamino]benzoic acid, Isomer 1], for which the concentration for half-maximal inhibition (IC50) in assay [1] (Soy PI lipid substrate) and in assay [2] (Soy PI lipid substrate) was greater than 10 µM throughout.

In the case of `Cc1cc(C(C)Nc2ccccc2C(=O)O)c2oc(-c3ccc(C(=O)N(C)C)cc3)cc(=O)c2c1` (single isomer, unassigned; isomer 1) [Example 49, 2-[1-[2-[4-(Dimethylcarbamoyl)-phenyl]-6-methyl-4-oxo-chromen-8-yl]ethylamino]benzoic acid, Isomer 1], the figures for the IC50 in assay [1] (Soy PI lipid substrate) and in assay [2] (Soy PI lipid substrate) were less than 0.5 µM and 5 to 10 µM, respectively.

`Cc1cc(C(C)Nc2ccccc2C(=O)O)c2oc(-c3ccc(N4CCCC4)cc3)cc(=O)c2c1` (single isomer, unassigned; isomer 1) [Example 54, 2-[1-[6-Methyl-4-oxo-2-(4-pyrrolidin-1-ylphenyl)chromen-8-yl]ethylamino]benzoic acid, Isomer 1]: the IC50 in assay [1] (Soy PI lipid substrate) was 0.5 to 1 µM; in assay [2] (Soy PI lipid substrate) it was greater than 10 µM.

Turning to `Cc1cc(C(C)Nc2ccccc2C(=O)O)c2oc(-c3ccccc3)c(C#N)c(=O)c2c1` (single isomer, unassigned; isomer 1) [Example 61, 2-[1-(3-Cyano-6-methyl-4-oxo-2-phenyl-chromen-8-yl)ethylamino]benzoic acid, Isomer 1], the IC50 in assay [1] (Soy PI lipid substrate) and in assay [2] (Soy PI lipid substrate) was greater than 10 µM throughout.

Turning to `CC(Nc1ccccc1C(=O)O)c1cc(C(F)(F)F)cc2c(=O)cc(-c3ccccc3)oc12` (single isomer, unassigned; isomer 1) [Example 86, 2-[1-[4-Oxo-2-phenyl-6-(trifluoromethyl)-chromen-8-yl]ethylamino]benzoic acid, Isomer 1], the IC50 was greater than 10 µM in assay [1] (Soy PI lipid substrate) and 5 to 10 µM in assay [2] (Soy PI lipid substrate).

On to `Cc1cc(C(C)Nc2cccc(F)c2C(=O)O)c2oc(-c3ccccc3F)c(C)c(=O)c2c1` (single isomer, unassigned; isomer 1) [Example 103, 2-Fluoro-6-[1-[2-(2-fluorophenyl)-3,6-dimethyl-4-oxo-chromen-8-yl]ethylamino]benzoic acid, Isomer 1], for which the IC50 in assay [1] (Soy PI lipid substrate) and in assay [2] (Soy PI lipid substrate) was less than 0.5 µM throughout.

Regarding `Cc1cc(C(C)Nc2cccc(F)c2C(=O)O)c2oc(-c3ccccc3F)cc(=O)c2c1` (single isomer, unassigned; isomer 1) [Example 107, 2-Fluoro-6-[1-[2-(2-fluorophenyl)-6-methyl-4-oxo-chromen-8-yl]ethylamino]benzoic acid, Isomer 1], the IC50 in assay [1] (Soy PI lipid substrate) is less than 0.5 µM; in assay [2] (Soy PI lipid substrate), 1 to 5 µM.

In the case of `Cc1cc(C(C)Nc2ccccc2C(=O)O)c2oc(-c3cccc(C(C)(C)C#N)c3)cc(=O)c2c1` (single isomer, unassigned; isomer 2) [Example 5, 2-[1-[2-[3-(1-Cyano-1-methyl-ethyl)phenyl]-6-methyl-4-oxo-chromen-8-yl]ethylamino]benzoic acid, Isomer 2], the IC50 is less than 0.5 µM in assay [1] (Soy PI lipid substrate) and greater than 10 µM in assay [2] (Soy PI lipid substrate).

In the case of `Cc1cc(C(C)Nc2ccccc2C(=O)O)c2oc(-c3ccc(S(C)(=O)=O)cc3)cc(=O)c2c1` (single isomer, unassigned; isomer 2) [Example 48, 2-[1-[6-Methyl-2-(4-methylsulfonylphenyl)-4-oxo-chromen-8-yl]ethylamino]benzoic acid, Isomer 2], the figures for the IC50 in assay [1] (Soy PI lipid substrate) and in assay [2] (Soy PI lipid substrate) were less than 0.5 µM and greater than 10 µM, respectively.

As to `Cc1cc(C(C)Nc2ccccc2C(=O)O)c2oc(-c3ccc(C4(C#N)CC4)cc3)cc(=O)c2c1` (single isomer, unassigned; isomer 2) [Example 53, 2-[1-[2-[4-(1-Cyanocyclopropyl)-phenyl]-6-methyl-4-oxo-chromen-8-yl]ethylamino]benzoic acid, Isomer 2], the results for the IC50 in assay [1] (Soy PI lipid substrate) and in assay [2] (Soy PI lipid substrate) were less than 0.5 µM and 1 to 5 µM, respectively.

With `CC(Nc1ccccc1C(=O)O)c1cc(C(F)(F)F)cc2c(=O)cc(-c3ccccc3)oc12` (single isomer, unassigned; isomer 2) [Example 87, 2-[1-[4-Oxo-2-phenyl-6-(trifluoromethyl)-chromen-8-yl]ethylamino]benzoic acid, Isomer 2], the IC50 was less than 0.5 µM in assay [1] (Soy PI lipid substrate) and 5 to 10 µM in assay [2] (Soy PI lipid substrate).

Regarding `Cc1cc(C(C)Nc2ccc(Cl)nc2C(=O)O)c2oc(-c3ccccc3)c(I)c(=O)c2c1` (single isomer, unassigned; isomer 2) [Example 154, 6-Chloro-3-[1-(3-iodo-6-methyl-4-oxo-2-phenyl-chromen-8-yl)ethylamino]pyridine-2-carboxylic acid, Isomer 2], the IC50 was less than 0.5 µM in assay [1] (Soy PI lipid substrate) and 0.5 to 1 µM in assay [2] (Soy PI lipid substrate).

For the compound `Cc1cc(C(C)Nc2ccc(Cl)nc2C(=O)O)c2oc(-c3ccccc3)c(I)c(=O)c2c1` (single isomer, unassigned; isomer i) [Example 153, 6-Chloro-3-[1-(3-iodo-6-methyl-4-oxo-2-phenyl-chromen-8-yl)ethylamino]pyridine-2-carboxylic acid, Isomer I], the IC50 in assay [1] (Soy PI lipid substrate) and in assay [2] (Soy PI lipid substrate) was 1 to 5 µM throughout.

For the compound `Cc1cc([C@@H](C)Nc2ccc(Cl)nc2C(=O)O)c2oc(-c3ccccc3)cc(=O)c2c1` [Example 2, 6-Chloro-3-[[(1R)-1-(6-methyl-4-oxo-2-phenyl-chromen-8-yl)ethyl]amino]pyridine-2-carboxylic acid], the IC50 in assay [1] (Soy PI lipid substrate) and in assay [2] (Soy PI lipid substrate) was less than 0.5 µM throughout.

Regarding `Cc1cc(C(C)Nc2ccccc2C(=O)O)c2oc(-c3cccc(C(C)(C)C#N)c3)cc(=O)c2c1` (centres unmarked) [Example 3, 2-[1-[2-[3-(1-Cyano-1-methyl-ethyl)phenyl]-6-methyl-4-oxo-chromen-8-yl]ethylamino]benzoic acid 2,2,2-trifluoroacetic acid], the IC50 was less than 0.5 µM in assay [1] (Soy PI lipid substrate) and 5 to 10 µM in assay [2] (Soy PI lipid substrate).

Turning to `CC(Nc1ccccc1C(=O)O)c1c(F)c(F)cc2c(=O)cc(-c3ccccc3)oc12` (centres unmarked) [Example 6, 2-[1-(6,7-Difluoro-4-oxo-2-phenyl-chromen-8-yl)ethylamino]benzoic acid 2,2,2-trifluoroacetic acid], the concentration for half-maximal inhibition (IC50) was less than 0.5 µM in assay [1] (setting [3]) and 1 to 5 µM in assay [2] (setting [3]).

As to `Cc1cc(C(C)Nc2ccccc2C(=O)O)c2oc(-c3ccc(C4(C#N)CC4)cc3)cc(=O)c2c1` (centres unmarked) [Example 7, 2-[1-[2-[4-(1-Cyanocyclopropyl)-phenyl]-6-methyl-4-oxo-chromen-8-yl]ethylamino]benzoic acid], the IC50 in assay [1] (setting [3]) was less than 0.5 µM; in assay [2] (setting [3]), 0.5 to 1 µM.

As for `Cc1cc(C(C)Nc2ccccc2C(=O)O)c2oc(-c3ccc(C(=O)N(C)C)cc3)cc(=O)c2c1` (centres unmarked) [Example 8, 2-[1-[2-[4-(Dimethylcarbamoyl)-phenyl]-6-methyl-4-oxo-chromen-8-yl]ethylamino]benzoic acid 2,2,2-trifluoroacetic acid], the IC50 in assay [1] (Soy PI lipid substrate) is less than 0.5 µM; in assay [2] (Soy PI lipid substrate) it was greater than 10 µM.

On to `Cc1cc(C(C)Nc2ccccc2C(=O)O)c2oc(-c3ccc(S(C)(=O)=O)cc3)cc(=O)c2c1` (centres unmarked) [Example 9, 2-[1-[6-Methyl-2-(4-methylsulfonylphenyl)-4-oxo-chromen-8-yl]ethylamino]benzoic acid 2,2,2-trifluoroacetic acid], for which the IC50 is less than 0.5 µM in assay [1] (Soy PI lipid substrate) and greater than 10 µM in assay [2] (Soy PI lipid substrate).
